Read-outs that look alike come from different tables or passages of the source.
Tests used:
[1] = target: T1, human type 3 17β-hydroxysteroid dehydrogenase (Homo sapiens, UniProt P37058); test: Enzymatic assay for type 3 17β-HSD; assay type: biochemical
T1 construct: expressed in transfected cells; host or cells: 293 cells, transient transfection; microsomal fraction (100 000×g pellet)
T1 sequence (P37058 1-310): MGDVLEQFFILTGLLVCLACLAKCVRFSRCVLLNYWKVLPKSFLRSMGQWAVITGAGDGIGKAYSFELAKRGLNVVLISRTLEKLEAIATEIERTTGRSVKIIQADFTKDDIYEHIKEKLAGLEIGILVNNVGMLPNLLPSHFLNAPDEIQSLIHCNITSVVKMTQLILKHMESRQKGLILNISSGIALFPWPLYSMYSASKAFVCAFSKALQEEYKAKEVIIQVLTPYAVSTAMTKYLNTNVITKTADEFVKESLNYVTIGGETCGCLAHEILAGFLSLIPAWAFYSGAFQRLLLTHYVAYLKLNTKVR
Source text: Enzymatic assay for types 1, 2, and 3 17β-HSD and types 1 and 3 3α-HSD”. Lower numbers of IC50 are desirable. Blank means that a determination was not done. The % of inhibition at the concentration of 3.10^−6M determined in preliminary screening test is reported in square braquets.
Enzyme sources. 293 cells transiently transfected with expression vectors encoding types 1, 2 and 3 17β-HSD (Luu-The et al., J. Steroid Biochem. Molec. Biol., 55: 581-587, 1995), types 1 and 2 5α-reductase (Luu-The et al., J. Invest. Dermatol., 102: 221-226, 1994) and types 1 and 3 3α-HSD (Dufort et al. Biochem. Biophys. Res. Commun. 228: 474-479, 1996), using the calcium phosphate procedure (Kingston et al., In: Current Protocols in Molecular Biology. Edited by E. M. Ausbel, R. Brent, R. E. Kingston, D. D. Moore, J. G. Seidman, J. A. Smith, K. Struhl. John Wiley & Sons, New York, pp. 9.1.1-9.1.9, 1991; Luu-The et al., J. Invest. Dermatol., 102: 221-226, 1994). For assays using cell subfractions, cells were sonicated in 50 mM sodium phosphate buffer (pH 7.4), containing 20% glycerol and 1 mM EDTA and centrifuged at 10 000×g for 30 min before centrifugation for 100 000×g for 1 h to separate the mitochondrial and microsomal fractions, respectively. The cytosol fractions (100 000×g supernatant) was used to determine type 1 activity while the microsomal fraction (pellet at 100 000×g) was used for measurement of types 2 and 3 17β-HSD activities.
Incubation. The enzymatic reaction was carried out at 37° C. in 1 ml of 50 mM sodium phosphate buffer, pH 7.4, containing 20% glycerol, 1 mM EDTA, and 2 mM cofactors (NADPH or AND^+) for 1 h in the presence of 0.1 μM ^14C-labeled substrate: estrone and 4-dione for types 1 and […] 17β-HSD, respectively, testosterone for type 2 17β-HSD as well as types 1 and 2 5α-reductases, DHT for types 1 and 3 3α-HSD activities, and the indicated concentration of inhibitor.
Extraction of metabolites, migration on TLC and quantification were as described above for the assay of type 5 17β-HSD.

CCOCCOc1ccc2c(c1)CC[C@@H]1[C@@H]2CC[C@]2(C)C(=O)CC[C@@H]12 [EM-1071, 3-Ethyloxyethyloxy-1,3,5(10)-estratrien-17-one]
% of Inhibition of the Type 3 17β-HSD Activity ([1]; 3.10^−6 M inhibitor): 91%
% of Inhibition of the Type 3 17β-HSD Activity ([1]; 3.10^−7 M inhibitor): 73%

CSCOc1ccc2c(c1)CC[C@@H]1[C@@H]2CC[C@]2(C)C(=O)CC[C@@H]12 [EM-1066, 3-Methylthiomethyloxy-1,3,5(10)-estratrien-17-one]
% of Inhibition of the Type 3 17β-HSD Activity ([1]; 3.10^−6 M inhibitor): 93%
% of Inhibition of the Type 3 17β-HSD Activity ([1]; 3.10^−7 M inhibitor): 63%

C[C@]12CC[C@](O)(CCc3ccccc3)C[C@@H]1CC[C@@H]1[C@@H]2CC[C@]2(C)C(=O)CC[C@@H]12 [EM-1324-CS, 3α-hydroxy-3β-phenylethyl-5α-androstane-17-one]
IC50 ([1]; Table 7, read-out: Inhibition of the Type 3 17β-HSD Activity IC50): 31 ± 4 nM

CSCCSc1ccc2c(c1)CC[C@@H]1[C@@H]2CC[C@]2(C)C(=O)CC[C@@H]12 [EM-1065, 3-Methylthioethylthio-Estra-1,3,5(10)-trien-17-one]
melting point: 74 °C
% of Inhibition of the Type 3 17β-HSD Activity ([1]; 3.10^−6 M inhibitor): 94%
% of Inhibition of the Type 3 17β-HSD Activity ([1]; 3.10^−7 M inhibitor): 63%

C[C@]12CC[C@](O)(Cc3ccccc3)C[C@@H]1CC[C@@H]1[C@@H]2CC[C@]2(C)C(=O)CC[C@@H]12 [CS-213, 3β-benzyl-3α-Hydroxy-5α-androstane-17-one]
IC50 [1]: 31 ± 4 nM

COCSc1ccc2c(c1)CC[C@@H]1[C@@H]2CC[C@]2(C)C(=O)CC[C@@H]12 [EM-1064, 3-Methoxymethylthio-Estra-1,3,5(10)-trien-17-one]
melting point: 55 °C
% of Inhibition of the Type 3 17β-HSD Activity ([1]; 3.10^−6 M inhibitor): 92%
% of Inhibition of the Type 3 17β-HSD Activity ([1]; 3.10^−7 M inhibitor): 62%

CCCCOc1ccc2c(c1)CC[C@@H]1[C@@H]2CC[C@]2(C)C(=O)CC[C@@H]12 [EM-1074, 3-Butyloxy-1,3,5(10)-estratrien-17-one]
% of Inhibition of the Type 3 17β-HSD Activity ([1]; 3.10^−6 M inhibitor): 92%
% of Inhibition of the Type 3 17β-HSD Activity ([1]; 3.10^−7 M inhibitor): 62%

COCCOc1ccc2c(c1)CC[C@@H]1[C@@H]2CC[C@]2(C)C(=O)CC[C@@H]12 [EM-1073, 3-Methyloxyethyloxy-1,3,5(10)-estratrien-17-one]
% of Inhibition of the Type 3 17β-HSD Activity ([1]; 3.10^−6 M inhibitor): 87%
% of Inhibition of the Type 3 17β-HSD Activity ([1]; 3.10^−7 M inhibitor): 51%

COCOc1ccc2c(c1)CC[C@@H]1[C@@H]2CC[C@]2(C)C(=O)CC[C@@H]12 [EM-1070, 3-Methyloxymethyloxy-1,3,5(10)-estratrien-17-one]
% of Inhibition of the Type 3 17β-HSD Activity ([1]; 3.10^−6 M inhibitor): 90%
% of Inhibition of the Type 3 17β-HSD Activity ([1]; 3.10^−7 M inhibitor): 57%

C[C@]12CC[C@@H](O)C[C@@H]1CC[C@@H]1[C@@H]2CC[C@]2(C)C(=O)CC[C@@H]12 [androsterone, reference compound]
IC50 [1]: 200 nM
